Laboratory results: the Kinase Knowledgebase extract (Sharma et al. 2016)

Molecular target: PIK3CA (human) (UniProt P42336)
Test: Assessment of PIK3CA Kinase Activity

Chain of PIK3CA (human) (P42336 whole entry, looked up): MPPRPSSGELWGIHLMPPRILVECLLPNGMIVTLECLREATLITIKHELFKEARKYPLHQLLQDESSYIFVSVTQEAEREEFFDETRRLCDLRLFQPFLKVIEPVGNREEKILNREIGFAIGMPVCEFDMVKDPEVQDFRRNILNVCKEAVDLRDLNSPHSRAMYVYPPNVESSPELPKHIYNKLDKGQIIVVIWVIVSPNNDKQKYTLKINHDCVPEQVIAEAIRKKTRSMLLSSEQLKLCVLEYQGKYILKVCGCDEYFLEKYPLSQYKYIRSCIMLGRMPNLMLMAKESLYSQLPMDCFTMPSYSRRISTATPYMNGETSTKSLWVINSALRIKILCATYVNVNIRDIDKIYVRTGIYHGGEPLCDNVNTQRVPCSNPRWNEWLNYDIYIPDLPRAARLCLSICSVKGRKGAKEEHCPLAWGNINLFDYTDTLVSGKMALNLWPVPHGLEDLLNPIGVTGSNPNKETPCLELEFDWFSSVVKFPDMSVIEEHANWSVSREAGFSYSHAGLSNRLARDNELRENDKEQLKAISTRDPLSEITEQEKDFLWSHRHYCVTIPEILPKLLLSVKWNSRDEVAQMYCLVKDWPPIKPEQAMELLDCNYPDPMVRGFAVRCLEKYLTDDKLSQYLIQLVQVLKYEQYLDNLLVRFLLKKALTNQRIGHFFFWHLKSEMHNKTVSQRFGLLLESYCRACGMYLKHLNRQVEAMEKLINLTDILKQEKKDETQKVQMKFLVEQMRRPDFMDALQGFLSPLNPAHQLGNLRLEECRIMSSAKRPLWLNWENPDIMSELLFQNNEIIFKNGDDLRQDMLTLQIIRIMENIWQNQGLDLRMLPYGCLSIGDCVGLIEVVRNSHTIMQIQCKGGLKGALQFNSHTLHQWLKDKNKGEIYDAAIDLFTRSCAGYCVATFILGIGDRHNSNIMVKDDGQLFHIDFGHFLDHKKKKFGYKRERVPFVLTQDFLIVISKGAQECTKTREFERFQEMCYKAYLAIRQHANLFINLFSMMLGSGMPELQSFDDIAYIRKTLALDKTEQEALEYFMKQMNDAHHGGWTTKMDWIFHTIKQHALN

| Ki | SMILES |
| --- | --- |
| 61 nM | COc1ccc(Nc2ncc(CN3CCNCC3)cc2-c2nc(C)nc(N)n2)cn1 |
| 17 nM | COc1ccc(Nc2ncc(CN3CCN(S(=O)(=O)N(C)C)CC3)cc2-c2nc(C)nc(N)n2)cn1 |
| 107 nM | COc1ccc(Nc2ncccc2-c2nc(C)nc(N)n2)cn1 |
| 7280 nM | COc1ccc(Nc2ncccc2-c2ncnc3[nH]cnc23)cn1 |
| 55 nM | COc1cnc(Nc2ccc(OC)nc2)c(-c2nc(C)nc(N)n2)c1 |
| 283 nM | COCCNCc1cnc(Nc2ccc(OC)nc2)c(-c2nc(C)nc(N)n2)c1 |
| 33 nM | Cc1nc(N)nc(-c2cccnc2Nc2cccc3[nH]ncc23)n1 |
| 8 nM | COc1ccc(Nc2ncc(-c3cnn(C)c3)cc2-c2nc(C)nc(N)n2)cn1 |
| 5 nM | COCCOc1cnc(Nc2cnc(Cl)c(NS(C)(=O)=O)c2)c(-c2nc(C)nc(N)n2)c1 |
| 2 nM | Cc1nc(N)nc(-c2cc(Cl)cnc2Nc2cnc(Cl)c(NS(=O)(=O)N(C)C)c2)n1 |
| 45 nM | COc1ncc(Nc2ncc(CN3CCN(C(=O)N(C)C4CC4)CC3)cc2-c2nc(C)nc(N)n2)cc1F |
| 63 nM | COc1ccc(Nc2ncc(CO)cc2-c2nc(C)nc(N)n2)cn1 |
| 14 nM | COc1cnc(Nc2cnc(Cl)c(NS(=O)(=O)N(C)C)c2)c(-c2nc(C)nc(N)n2)c1 |
| 7 nM | Cc1nc(N)nc(-c2cc([C@@H](C)N3CCOCC3)cnc2Nc2cnc(Cl)c(NS(C)(=O)=O)c2)n1 |
| 22 nM | COc1ccc(Nc2ncc(CN3CCC(S(C)(=O)=O)CC3)cc2-c2nc(C)nc(N)n2)cn1 |
| 160 nM | COc1ccc(Nc2ncc(CN3CCC3)cc2-c2nc(C)nc(N)n2)cn1 |
| 33 nM | COc1ccc(Nc2ncc(C(O)C(F)(F)F)cc2-c2nc(C)nc(N)n2)cn1 (stereo unspecified) |

| Ki | SMILES |
| --- | --- |
| 199 nM | COc1ccc(Nc2ncc(CN3CCC(O)CC3)cc2-c2nc(C)nc(N)n2)cn1 |
| 35 nM | COc1cccc(Nc2cnc(Nc3ccc(OC)nc3)c(-c3nc(C)nc4[nH]cnc34)c2)c1 |
| 242 nM | COc1ccc(Nc2ncc(C)cc2-c2nc(C)nc(N)n2)cn1 |
| 65 nM | COc1ccc(Nc2ncc(Cc3ccccc3)cc2-c2nc(C)nc(N)n2)cn1 |
| 9 nM | COc1ncc(Nc2ncc([C@@H](C)CO)cc2-c2nc(C)nc(N)n2)cc1F |
| 153 nM | COc1ccc(Nc2ncc(CN3CCCCC3)cc2-c2nc(C)nc(N)n2)cn1 |
| 5 nM | COc1ccc(Nc2ncc(C3=CCOCC3)cc2-c2nc(C)nc(N)n2)cn1 |
| 16 nM | COc1ccc(Nc2ncc(CN3CCC(S(C)(=O)=O)C3)cc2-c2nc(C)nc(N)n2)cn1 (stereo unspecified) |
| 266 nM | COc1ccc(Nc2ncc(CN3CCCC3)cc2-c2nc(C)nc(N)n2)cn1 |
| 24 nM | COc1ncc(Nc2ncc(CN3CCN(C(=O)N(C)CC(F)(F)F)CC3)cc2-c2nc(C)nc(N)n2)cc1F |
| 278 nM | COc1ccc(Nc2ncc(CN3CC[C@@H](CO)C3)cc2-c2nc(C)nc(N)n2)cn1 |
| 70 nM | COc1ccc(Nc2ncc(Cl)cc2-c2nc(C)nc(N)n2)cn1 |
| 7 nM | COc1ncc(Nc2ncc([C@H](C)CO)cc2-c2nc(C)nc(N)n2)cc1F |
| 247 nM | COc1ccc(Nc2ncc(Br)cc2-c2nc(C)nc(N)n2)cn1 |
| 258 nM | COc1ccc(Nc2ncc(CN3CCN(C)CC3)cc2-c2nc(C)nc(N)n2)cn1 |
| 104 nM | COc1ccc(Nc2ncc(CN3CCOCC3)cc2-c2nc(C)nc(N)n2)cn1 |
| 9 nM | COc1ccc(Nc2ncc(CC3CCN(S(C)(=O)=O)CC3)cc2-c2nc(C)nc(N)n2)cn1 |

| SMILES | Ki |
| --- | --- |
| COc1ccc(Nc2ncc([C@@H](O)C(C)(C)C)cc2-c2nc(C)nc3[nH]cnc23)cn1 | 12 nM |
| COc1ccc(Nc2ncc([C@H](O)C(C)(C)C)cc2-c2nc(C)nc3[nH]cnc23)cn1 | 31 nM |
